Results on 13 molecules are retold here after article PMC8252724 (2021).

Usually Kd stands for the constant that tells how readily two partners part at equilibrium.

Assay [1] deals with c-Myc (Pu22) (DNA, G4) TGAGGGTGGGTAGGGTGGGTAA
The experiment in a line: thiazole orange displacement (FID). The note with it: 140 mM KCl, 20 mM Na cacodylate; pH 7, RT, 10% DMSO; 0.5 μM TO displaced, 0.5 μM DNA.

The test system of assay [2] is FAM-Pu22 (DNA, G4) TGAGGGTGGGTAGGGTGGGTAA
The assay is described as follows: microscale thermophoresis. The following applies: 150 mM KCl; 10 mM Tris-HCl, pH 7.4.

The subject of assay [3] is c-Myc (Pu22) (DNA, G4) TGAGGGTGGGTAGGGTGGGTAA
The assay is described as follows: 1H NMR. The note with it: 70 mM KCl, 25 mM KPi; pH 7, 298 K, 10% DMSO-d6, 0.1 mM DNA.

Assay [4] concerns dsDNA 24bp (FAM-duplex) (DNA, duplex) CGCGAATTCGCGCGCGAATTCGCG
The experiment in a line: microscale thermophoresis. The following applies: 150 mM KCl; 10 mM Tris-HCl, pH 7.4. On the technique in general: Microscale thermophoresis detects binding through changes in fluorescence in a small temperature gradient.

Assay [5] has as its system FAM-Pu22 (DNA, G4) TGAGGGTGGGTAGGGTGGGTAA
The experiment in a line: fluorescence intensity titration of labelled DNA. The following applies: 150 mM KCl; 10 mM Tris-HCl, pH 7.4, RT, 2-3% DMSO, 50 nM DNA.

Assay [6] relates to c-Myc (Pu22) (DNA, G4) TGAGGGTGGGTAGGGTGGGTAA
The assay is described as follows: 1H NMR titration. The note with it: 70 mM KCl, 25 mM KPi; pH 7, 298 K, 10% DMSO-d6, 0.1 mM DNA.

In the case of `NCCNCCNCCNCCNCc1c[nH]c2ncccc12`, the “DC50 FID” value in assay [1] stood at 16.63 ± 1.93 µM.

Take `O=[N+]([O-])c1ccc2c(ccn2CCCN2CCCC2)c1`: the “DC50 FID” value in assay [1] amounted to 5.01 ± 0.15 µM. In addition, the “K D MST” value in assay [2] is 1.49 ± 0.12 µM. For the same molecule, the binding result in assay [3] is “yes”. Also, the Kd in assay [4] was 38.1 ± 2.39 µM. Further, the “K D FAM” value in assay [5] amounted to 2.43 ± 0.29 µM.

Consider `NCCNCCNCCNCCNCc1n[nH]c2ccccc12`, for which the “DC50 FID” value in assay [1] was 15.63 ± 1.08 µM.

On to `Nc1ccc2c(ccn2CCCN2CCCC2)c1`, for which the “DC50 FID” value in assay [1] was found to be 6.31 ± 0.43 µM. Further, the “K D MST” value in assay [2] was 2.86 ± 0.33 µM. The Kd in assay [4] is 18.0 ± 1.33 µM. Also, the “K D FAM” value in assay [5] was 7.12 ± 0.45 µM.

Turning to `O=[N+]([O-])c1ccc2[nH]cc(CNCCN3CCCC3)c2c1`, the “DC50 FID” value in assay [1] was found to be 6.81 ± 0.9 µM. In addition, the “K D MST” value in assay [2] was 5.52 ± 0.61 µM. Moreover, the binding entry in assay [3] is reported as “yes”. Besides, in assay [5], the “K D FAM” value stood at 7.53 ± 0.93 µM.

For `c1cc2c(cc1CNCCN1CCCC1)OCO2`, in assay [1], the “DC50 FID” value turned out to be 16.11 ± 1.33 µM.

Take `NCCNCCNCCNCCNCc1ccc2c(c1)OCO2`: the “DC50 FID” value in assay [1] turned out to be 18.11 ± 1.69 µM.

As to `O=[N+]([O-])c1ccc2c(c1)c(CNCCN1CCCC1)cn2CCCN1CCCC1`, the “DC50 FID” value in assay [1] is 3.30 ± 0.86 µM. In assay [6], the binding entry is “yes”. Moreover, the “K D MST” value in assay [2] came to 1.30 ± 0.21 µM. Besides, the Kd in assay [4] is 32.3 ± 1.69 µM. Besides, the “K D FAM” value in assay [5] is 2.81 ± 0.37 µM.

`CN(C)Cc1c[nH]c2ccc(N)cc12`: in assay [1], the “DC50 FID” value is 3.83 ± 0.11 µM. Further, the “K D MST” value in assay [2] stood at 2.21 ± 0.89 µM. Further, the binding entry in assay [3] is “weak”. The “K D FAM” value in assay [5] worked out at 6.29 ± 0.71 µM.

As to `Cn1ccc2cc(N)ccc21`, the “DC50 FID” value in assay [1] stood at 3.71 ± 0.32 µM. The “K D MST” value in assay [2] was determined as 2.32 ± 0.41 µM. The binding result in assay [3] was “weak”. Also, the “K D FAM” value in assay [5] was 6.30 ± 0.63 µM.

With `CN(C)Cc1c[nH]c2ccc([N+](=O)[O-])cc12`, the “DC50 FID” value in assay [1] worked out at 19.11 ± 0.88 µM. In addition, the “K D MST” value in assay [2] was 13.22 ± 0.80 µM. For the same molecule, in assay [5], the “K D FAM” value stood at 15.21 ± 1.93 µM.

Consider `Cc1cc2cc(N)ccc2n1C`, for which the “DC50 FID” value in assay [1] turned out to be 14.53 ± 0.61 µM. For the same molecule, in assay [2], the “K D MST” value came to 17.18 ± 0.54 µM. Also, the “K D FAM” value in assay [5] worked out at 12.32 ± 0.94 µM.

As to `c1ccc2c(c1)ccn2CCCN1CCCC1`, the “DC50 FID” value in assay [1] was 19.12 ± .92 µM. Moreover, the “K D MST” value in assay [2] is 15.11 ± 0.30 µM. Further, in assay [5], the “K D FAM” value was determined as 16.87 ± 1.58 µM.
